Assay results reported in patent US10407429B2, “Pyrazolo[1,5-a]triazin-4-amine derivatives useful in therapy” (Curovir AB, priority 2015, dated 2019).

Experiments:
Assay type in all cases: cell-based
Enterovirus 6 = assay: Antiviral CPE assay in mammalian cell culture; conditions: prevention of viral CPE, read-out: inhibition capacity (IC50) EV6
polio virus Sabin 1 = assay: organism not typed; conditions: read-out: inhibition capacity (IC50) Polio 1
coxsackie B1 virus = assay: Antiviral CPE assay in mammalian cell culture; conditions: read-out: inhibition capacity (IC50) Bl
Enterovirus 30 = assay: Antiviral CPE assay in mammalian cell culture; conditions: Enterovirus, read-out: inhibition capacity (IC50) EV30
coxsackie B3 virus = assay: Antiviral CPE assay in mammalian cell culture; conditions: Enterovirus B, B3, read-out: inhibition capacity (IC50) B3
Enterovirus 71 = assay: Antiviral CPE assay in mammalian cell culture; conditions: Enterovirus A, EV71, prevention of viral CPE, read-out: inhibition capacity (IC50) EV71
coxsackie B2 virus = assay: Antiviral CPE assay in mammalian cell culture; conditions: read-out: inhibition capacity (IC50) B2
coxsackie B5virus = assay: Antiviral CPE assay in mammalian cell culture; conditions: read-out: inhibition capacity (IC50) B5
coxsackie B 4 virus = assay: Antiviral CPE assay in mammalian cell culture; conditions: Enterovirus B, B4, read-out: inhibition capacity (IC50) B4
Enterovirus 68 = assay: Antiviral CPE assay in mammalian cell culture; conditions: Enterovirus D, EV68, read-out: inhibition capacity (IC50) EV68

Row | Structure (SMILES) | IC50 (Enterovirus 6) | IC50 (polio virus Sabin 1) | IC50 (coxsackie B1 virus) | IC50 (Enterovirus 30) | IC50 (coxsackie B3 virus) | IC50 (Enterovirus 71) | IC50 (coxsackie B2 virus) | IC50 (coxsackie B5virus) | IC50 (coxsackie B 4 virus) | IC50 (Enterovirus 68)
1 | COc1ccc(-c2c(C)nn3c(NCc4ccc(F)cc4)nc(C)nc23)cc1OC [Example 1, 8-(3,4-dimethoxyphenyl)-N-[(4-fluorophenyl)methyl]-2,7-dimethyl-pyrazolo[1,5-a][1,3,5]triazin-4-amine] | < 1000 nM | < 10 nM | < 100 nM | < 100 nM | < 1000 nM | < 10 nM | < 10 nM | < 100 nM |  | 
2 | COc1ccc(-c2c(C)nn3c(NCc4ccc(C(F)(F)F)cc4)nc(C)nc23)cc1OC [Example 2, 8-(3,4-dimethoxyphenyl)-2,7-dimethyl-N-[[4-(trifluoromethyl)phenyl]methyl]pyrazolo[1,5-a][1,3,5]triazin-4-amine] | < 1000 nM | < 100 nM | < 100 nM | < 100 nM | < 1000 nM | < 1000 nM | < 100 nM | < 100 nM | < 100 nM | < 1000 nM
3 | COc1ccc(-c2c(C)nn3c(NCc4ccc(C)cc4)nc(C)nc23)cc1OC [Example 3, 8-(3,4-dimethoxyphenyl)-2,7-dimethyl-N-(p-tolylmethyl)pyrazolo[1,5-a][1,3,5]triazin-4-amine] | < 1000 nM | < 100 nM | < 100 nM | < 100 nM | < 100 nM | < 100 nM | < 100 nM | < 100 nM | < 100 nM | < 100 nM
4 | COc1ccc(-c2c(C)nn3c(NCc4ccc(C(C)C)cc4)nc(C)nc23)cc1OC [Example 4, 8-(3,4-dimethoxyphenyl)-N-[(4-isopropylphenyl)methyl]-2,7-dimethyl-pyrazolo[1,5-a][1,3,5]triazin-4-amine] | < 1000 nM | < 1000 nM | < 1000 nM | < 1000 nM | < 1000 nM | < 1000 nM | < 1000 nM | < 1000 nM | < 1000 nM | < 1000 nM
5 | COc1ccc(-c2c(C)nn3c(NCc4ccccn4)nc(C)nc23)cc1OC [Example 5, 8-(3,4-dimethoxyphenyl)-2,7-dimethyl-N-(2-pyridylmethyl)pyrazolo[1,5-a][1,3,5]triazin-4-amine] | < 1000 nM | < 100 nM | < 100 nM | < 1000 nM | < 1000 nM | < 1000 nM | < 100 nM | < 1000 nM | < 1000 nM | < 1000 nM
6 | COc1ccc(-c2c(C)nn3c(NCCc4ccc(Cl)cc4)nc(C)nc23)cc1OC [Example 7, N-[2-(4-chlorophenyl)ethyl]-8-(3,4-dimethoxyphenyl)-2,7-dimethyl-pyrazolo[1,5-a][1,3,5]triazin-4-amine] | < 1000 nM | < 1000 nM | < 1000 nM | < 1000 nM | < 1000 nM | < 1000 nM | < 1000 nM | < 1000 nM | < 1000 nM | < 1000 nM
7 | COc1ccc(-c2c(C)nn3c(NCc4ccc(Cl)cc4)nc(C)nc23)cc1OC [Example 8, N-[(4-chlorophenyl)methyl]-8-(3,4-dimethoxyphenyl)-2,7-dimethyl-pyrazolo[1,5-a][1,3,5]triazin-4-amine] | < 1000 nM | < 100 nM | < 100 nM | < 100 nM | < 100 nM | < 1000 nM | < 100 nM | < 1000 nM | < 100 nM | < 100 nM
8 | COc1ccc(-c2c(C)nn3c(NCc4ccc(NC(C)=O)cc4)nc(C)nc23)cc1OC [Example 9, N-[4-[[[8-(3,4-dimethoxyphenyl)-2,7-dimethyl-pyrazolo[1,5-a][1,3,5]triazin-4-yl]amino]methyl]phenyl]acetamide] | < 100 nM | < 10 nM | < 1000 nM | < 100 nM | < 100 nM | < 100 nM | < 100 nM | < 100 nM | < 100 nM | < 100 nM
9 | COc1ccc(CNc2nc(C)nc3c(-c4ccc(OC)c(OC)c4)c(C)nn23)cc1 [Example 10, 8-(3,4-dimethoxyphenyl)-N-[(4-methoxyphenyl)methyl]-2,7-dimethyl-pyrazolo[1,5-a][1,3,5]triazin-4-amine] | < 1000 nM | < 100 nM | < 100 nM | < 100 nM | < 1000 nM | < 1000 nM | < 100 nM | < 100 nM | < 100 nM | < 100 nM
10 | COc1ccc(-c2c(C)nn3c(NCc4cccc(S(C)(=O)=O)c4)nc(C)nc23)cc1OC [Example 11, 8-(3,4-dimethoxyphenyl)-2,7-dimethyl-N-[(3-methylsulfonylphenyl)methyl]pyrazolo[1,5-a][1,3,5]triazin-4-amine] | < 100 nM | < 10 nM | < 10 nM | < 10 nM | < 10 nM | < 100 nM | < 10 nM | < 10 nM | < 10 nM | < 100 nM
11 | COc1ccc(-c2c(C)nn3c(NCc4cc[n+]([O-])cc4)nc(C)nc23)cc1OC [Example 12, 8-(3,4-dimethoxyphenyl)-2,7-dimethyl-N-[(1-oxidopyridin-1-ium-4-yl)methyl]pyrazolo[1,5-a][1,3,5]triazin-4-amine] |  | < 1000 nM | < 1000 nM | < 1000 nM | < 1000 nM | < 1000 nM | < 1000 nM | < 1000 nM | < 1000 nM | < 1000 nM
12 | COc1ccc(CNc2nc(C)nc3c(-c4ccc(OC)c(OC)c4)c(C)nn23)cn1 [Example 13, 8-(3,4-dimethoxyphenyl)-N-[(6-methoxy-3-pyridyl)methyl]-2,7-dimethyl-pyrazolo[1,5-a][1,3,5]triazin-4-amine] |  | < 10 nM | < 10 nM | < 10 nM | < 100 nM | < 100 nM | < 100 nM | < 100 nM | < 100 nM | < 100 nM
13 | COc1ccc(-c2c(C)nn3c(NCC4CCCCC4)nc(C)nc23)cc1OC [Example 15, N-(cyclohexylmethyl)-8-(3,4-dimethoxyphenyl)-2,7-dimethyl-pyrazolo[1,5-a][1,3,5]triazin-4-amine] | < 1000 nM | < 1000 nM | < 1000 nM | < 1000 nM | < 1000 nM | < 1000 nM | < 1000 nM | < 1000 nM | < 1000 nM | < 1000 nM
14 | COc1ccc(-c2c(C)nn3c(NCc4ccc5c(c4)OCO5)nc(C)nc23)cc1OC [Example 16, N-(1,3-benzodioxol-5-ylmethyl)-8-(3,4-dimethoxyphenyl)-2,7-dimethyl-pyrazolo[1,5-a][1,3,5]triazin-4-amine] | < 1000 nM | < 100 nM | < 100 nM | < 100 nM | < 100 nM | < 100 nM | < 100 nM | < 100 nM | < 10 nM | < 100 nM
15 | COc1ccc(-c2c(C)nn3c(NCc4ccc(O)cc4)nc(C)nc23)cc1OC [Example 17, 4-[[[8-(3,4-dimethoxyphenyl)-2,7-dimethyl-pyrazolo[1,5-a][1,3,5]triazin-4-yl]amino]methyl]phenol] | < 100 nM | < 10 nM | < 10 nM | < 100 nM | < 100 nM | < 10 nM | < 10 nM | < 10 nM | < 100 nM | < 100 nM
16 | COc1ccc(-c2c(C)nn3c(NCC4CCCO4)nc(C)nc23)cc1OC (stereo not drawn) [Example 18, 8-(3,4-dimethoxyphenyl)-2,7-dimethyl-N-(tetrahydrofuran-2-ylmethyl)pyrazolo[1,5-a][1,3,5]triazin-4-amine] | < 1000 nM | < 1000 nM | < 1000 nM | < 1000 nM | < 1000 nM | < 1000 nM | < 1000 nM | < 1000 nM | < 1000 nM | < 1000 nM
17 | COc1ccc(-c2c(C)nn3c(NCc4ccc(NS(C)(=O)=O)cc4)nc(C)nc23)cc1OC [Example 19, N-[4-[[[8-(3,4-dimethoxyphenyl)-2,7-dimethyl-pyrazolo[1,5-a][1,3,5]triazin-4-yl]amino]methyl]phenyl]methanesulfonamide] | < 1000 nM | < 100 nM | < 100 nM | < 100 nM | < 100 nM | < 10 nM | < 100 nM | < 1000 nM | < 10 nM | < 100 nM
18 | COc1ccc(-c2c(C)nn3c(NCc4ccccc4)nc(C)nc23)cc1OC [Example 20, N-benzyl-8-(3,4-dimethoxyphenyl)-2,7-dimethyl-pyrazolo[1,5-a][1,3,5]triazin-4-amine] | < 100 nM | < 100 nM | < 100 nM | < 100 nM | < 100 nM | < 100 nM | < 100 nM | < 100 nM | < 10 nM | < 100 nM
19 | COc1ccc(-c2c(C)nn3c(NCc4cccs4)nc(C)nc23)cc1OC [Example 21, 8-(3,4-dimethoxyphenyl)-2,7-dimethyl-N-(2-thienylmethyl)pyrazolo[1,5-a][1,3,5]triazin-4-amine] | < 100 nM | < 100 nM | < 10 nM | < 100 nM | < 100 nM | < 100 nM | < 10 nM | < 100 nM | < 100 nM | < 100 nM
